Experiments:
[1] = tested on: CHL/IU (cell line derived from a Chinese hamster lung); experiment: Phospholipidosis detecting system using fluorescent labeling phospholipid analog (NBD-PE); format: cell-based; settings: for Rate of increase of phopholipid accumulation (%): compound dose: 100 μM, CHL/IU cells, NBD-PE, about 24 hours; for Determination: positive if 25% or more of maximum increase rate of amiodarone
Experimental: 100 μL/well as required (1 dose 2 wells) of cell suspension of CHL/IU (cell line derived from a Chinese hamster lung) (7×10^4 cells/mL) prepared by MEM (minimum essential medium) culture medium was added to a 96-well plate (96-well clear-bottom plate), and cultured for about 24 hours. After culture, the supernatant of the 96-well plate was removed, and the 100 μL/well compounds of each concentration dissolved and suspended in an MEM including 25 μmol/L nitrobenzoxadiazole dipalmitoyl phosphatidylethanolamine (NBD-PE) (hereinafter abbreviated as a NPD-PE medium) were added and treated for about 24 hours. The treatment concentrations of each compound were set to be 6.25, 12.5, 25, 50 and 100 μmol/L. The positive control substance was set to be amiodarone hydrochloride, and the treatment concentrations were set to be 1.25, 2.5, 5, 10 and 20 μmol/L. In addition, 5-well untreated controls (only MEM) and 5-well NBD-PE controls (made by means of adding a 1/100 amount of DMSO to the NBD-PE culture medium) were set per compound, and cultured in the same manner. After finishing the culture, the cultures were washed twice with phosphate buffered saline (hereinafter abbreviated as PBS) (−) 100 μL/well, and the MEM (100 μL) was added to all of the treatment wells including two empty wells for WST-1 background controls and cultured for about a half hour. The fluorescence intensities of each well were measured by using a microplate reader (manufactured by Molecular Devices Inc., SPECTRA max M2; the excitation wavelength 485 nm/fluorescence wavelength 535 nm). Using the average values of each dose×2 wells, a phospholipid increase rate (%) to the NBD-PE control was calculated by using the following calculating formula: Rate of increase of pholipid accumulation (%)=100×{(test compound fluorescence intensity−non-treated control fluorescence intensity)/(NBD-PE control fluorescence intensity−non-treated control fluorescence intensity)} (3) Cytotoxicity Assay 96-well plate measured in the phospholipid accumulation measurement was measured by means of Plate Reader (manufactured by Molecular Devices Inc., SPECTRA max M2) with the main wavelength of 450 nm and the correct wavelength of 690 nm to calculate a Pre value. An amount of 5 μL/well of Premix WS T-1 was added to each of the 96-hole plates by which Pre measurement was conducted. After culture for 2 to 4 hours, the 96-well plate was measured as well as the Pre measurement to calculate an Aft value. Then, the background control value was subtracted from the each measured value. A value which was calculated by subtracting the Pre value from the Aft value was used, then the cell growth rate (%) was calculated by using the following calculating formula: Cell growth rate (%)=100×[(test substance OD)/(NBD-PE control OD)] (4) Determination A test dose that indicated value of 25% or more of the maximum phospholipid accumulation increase rate of amiodarone which was the positive control was determined as positive. In addition, the dose whose cell growth rate was equal to or less than 50% in the cytotoxicity assay was not used for determination of existence or nonexistence of a phospholipidosis inductive effect.

[2] = target: T1, CXCR4 (Homo sapiens, UniProt P61073); experiment: Inhibition of binding human SDF-1 (125I-SDF-1) to CEM cells; settings: 125I-SDF-1 binding to human T cell strain CEM cells, 4° C., 60 minutes
T1 construct: a human T cell strain in which CXCR4 is known to be expressed; endogenous in cells; host or cells: CEM cells (human T cell strain)
T1 sequence (P61073 whole entry): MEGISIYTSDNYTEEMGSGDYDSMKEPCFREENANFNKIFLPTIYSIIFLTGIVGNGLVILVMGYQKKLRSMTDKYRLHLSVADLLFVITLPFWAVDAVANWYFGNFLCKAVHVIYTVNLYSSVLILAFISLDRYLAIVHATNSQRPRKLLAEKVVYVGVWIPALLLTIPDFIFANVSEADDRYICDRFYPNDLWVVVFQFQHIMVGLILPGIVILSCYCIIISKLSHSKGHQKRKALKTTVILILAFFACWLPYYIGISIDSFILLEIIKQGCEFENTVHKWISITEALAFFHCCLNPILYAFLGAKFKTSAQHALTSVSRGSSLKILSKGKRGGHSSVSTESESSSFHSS
Experimental: Specifically, as a system of screening a compound that inhibits the binding between SDF-1 and CXCR4, for example a system of measuring the binding between iodine-labeled SDF-1 and a human T cell strain in which CXCR4 is known to be expressed is operable.
To human T cell strain CEM cells in a binding buffer (containing HEPES and BSA), the test compound and ^125I-SDF-1 (NEN) were added and the mixture was incubated at 4° C. for 60 minutes. The reacted CEM cells were rapidly filtrated with a GF/B membrane filter plate (Packard) to adsorb. The plate was washed with phosphate buffered saline (hereinafter abbreviated to PBS) three times and then dried. Microscint+20 (Packard) was added thereto. An amount of the radioactivity bound to the CEM cells was measured using Top Count (Packard) and inhibition (%) of the test compound was calculated according to the following equation: Inhibition={(Et−Ea)/(Et−Ec)}×100
Et: Amount of radioactivity when the test compound is not added,
Ec: Amount of radioactivity when non-radioactive SDF-1 (Pepro Tech) is added in an amount of 1,000 times as much as ^125I-SDF-1 as a test compound,
Ea: Amount of radioactivity when the test compound is added.

[3] = Artificial lipid membrane binding using Biacore S51 system (in vitro phospholipidosis risk); settings: for Determination: Biacore lipid membrane binding, positive if corrected value 150 or more; for Corrected value of binding response (RU): compound 50 μM in PBS/5% DMSO (pH 7.4), 37° C., DOPA liposome on Sensor Chip L1
Experimental: 10 mM of 1,2-dioleoyl-sn-glycero-3-phosphate monosodium salt (hereinafter abbreviated as DOPA) chloroform solution was evaporated to dryness by means of an aspirator, and 0.6 mL of PBS/5% dimethyl sulfoxide (hereinafter abbreviated as DMSO) was added. The solution was fully suspended by the vortex mixer, and the freezing and thawing were repeated for 5 times. Liposome was created by the liposome preparation instrument (manufactured by Avestin Inc.) and two syringes, and was diluted to 0.5 mM with PBS/5% DMSO just prior to immobilization.
38 μl of 1×PBS was added to 2 μl of a DMSO solution (10 mM), and the 360 μl of 1×PBS/5% DMSO was further added thereto and the 50 μM of final concentration in PBS/5% DMSO was prepared and measured.
All of the following analysis used Biacore® S51 system and the measurement conditions were set by Biacore S51 Control Soft.
The measurement temperature was set to be 37° C., and PBS/5% DMSO (pH 7.4) was used as a buffer. Series S Sensor Chip L1 was used for a sensor chip. DOPA was immobilized in one of the measuring spots on the sensor surface and the central spot was used as a reference.
Immobilization of liposome was conducted at a flow rate of 10 μL/min for about 3 minutes and then the compound was added at a flow rate of 30 μL/min and the interaction was measured. The measurement conditions are as follows: • Assay buffer: PBS/5% DMSO (pH 7.4) • Measurement temperature: 37° C. • Sensor chip: Series S Sensor Chip L1 • Flow rate: 10 μL/min at the time of the liposome immobilization; 30 μL/min at the time of the measurement of interaction with the compound Regeneration: 20 mM CHAPS (3-[(3-cholamidopropyl)dimethylammonio]-1-propanesulfonate), isopropanol/aqueous 50 mM sodium hydroxide solution=40/60 (volume ratio) mixture (60 seconds) (4) Data Processing
The data processing was conducted by means of method of Abdiche et al. (Analytical biochemistry, 328, 233-243 (2004)) by using Biacore S51 Evaluation Soft.
Regarding the value of binding response (RU) in which the value of reference was subtracted, it was divided by a sample molecular weight after minute error of the DMSO concentration included in the sample solution was corrected. In addition, the value obtained here was divided by an amount of capture at the time of the cycle because the value obtained here was proportional to the amount of capture of the liposome and the value was multiplied by a million to be considered as a corrected value (Corrected value=1,000,000×RU (test compound)/molecular quantity (test compound) RU (liposome)).
Propranolol, amiodarone, desipramine, imipramine and procaine were added as the controls, and it was recognized that the variation of the binding response was within about 10 to 15%.
The compound wherein a value of the binding response after the correction was 150 or more was determined as positive.

| Compound | IC50 [2] [nM] | Rate of increase of phopholipid accumulation (%) [1] [%] | Determination [1] | Determination [3] | Corrected value of binding response (RU) [3] [RU] |
| --- | --- | --- | --- | --- | --- |
| CC(OC(=O)CCn1ccnc1CN(Cc1ccc(CN2CCC3(CCN(C4CCCCC4)CC3)C2)cc1)Cc1ncc[nH]1)OC(=O)OC1CCCCC1 (centres unmarked) [Example 36, 1-{[(cyclohexyloxy)carbonyl]oxy}ethyl 3-(2-{[{4-[(8-cyclohexyl-2,8-diazaspiro[4.5]dec-2-yl)methyl]benzyl}(1H-imidazol-2-ylmethyl)amino]methyl}-1H-imidazol-1-yl)propanoate] | 20.4 | – | – | – | – |
| CCOC(=O)CCCn1ccnc1CN(Cc1ccc(CN2CCC3(CCN(CC(C)C)CC3)C2)cc1)Cc1ncc[nH]1 [Example 37 (1), Ethyl 4-(2-{[(1H-imidazol-2-ylmethyl){4-[(8-isobutyl-2,8-diazaspiro[4.5]dec-2-yl)methyl]benzyl}amino]methyl}-1 H-imidazol-1-yl)butanoate] | 13.7 | – | – | – | – |
| CC(C)CN1CCC2(CC1)CCN(Cc1ccc(CN(Cc3ncc[nH]3)Cc3nccn3CCCC(=O)O)cc1)C2 [Example 38 (1), 4-(2-{[(1H-imidazol-2-ylmethyl){4-[(8-isobutyl-2,8-diazaspiro[4.5]dec-2-yl)methyl]benzyl}amino]methyl}-1H-imidazol-1-yl)butanoic Acid] | 18.7 | 8 | Negative (A test dose that indicated value of 25% or more of the maximum phospholipid accumulation increase rate of amiodarone which was the positive control was determined as positive) | Negative (The compound wherein a value of the binding response after the correction was 150 or more was determined as positive) | 5.4 |
| CCC(CC)N1CCC2(CCN(Cc3ccc(CN(Cc4ncc[nH]4)Cc4nccn4CCCC(=O)O)cc3)C2)CC1 [Example 38 (3), 4-(2-{[(4-{[8-(1-ethylpropyl)-2,8-diazaspiro[4.5]dec-2-yl]methyl]benzyl)(1H-imidazol-2-ylmethyl)amino]methyl}-1H-imidazol-1-yl)butanoic Acid] | 12 | 11 | Negative (A test dose that indicated value of 25% or more of the maximum phospholipid accumulation increase rate of amiodarone which was the positive control was determined as positive) | Negative (The compound wherein a value of the binding response after the correction was 150 or more was determined as positive) | 98.9 |

Continued, in another order:

| IC50 [2] [nM] | Compound | Rate of increase of phopholipid accumulation (%) [1] [%] | Determination [1] | Determination [3] | Corrected value of binding response (RU) [3] [RU] |
| --- | --- | --- | --- | --- | --- |
| 3.4 | O=C(O)CCn1ccnc1CN(Cc1ccc(CN2CCC3(CCN(C4CCCCC4)CC3)C2)cc1)Cc1ncc[nH]1 [Example 9 (1), 3-(2-{[{4-[(8-cyclohexyl-2,8-diazaspiro[4.5]dec-2-yl)methyl]benzyl}(1H-imidazol-2-ylmethyl)amino]methyl}-1H-imidazol-1-yl)propionic Acid] | 6 | Negative (A test dose that indicated value of 25% or more of the maximum phospholipid accumulation increase rate of amiodarone which was the positive control was determined as positive) | Negative (The compound wherein a value of the binding response after the correction was 150 or more was determined as positive) | 52.0 |
| 4.8 | O=C(O)Cn1ccnc1CN(Cc1ccc(CN2CCC3(CCN(C4CCCCC4)CC3)C2)cc1)Cc1ncc[nH]1 [Example 9, (2-{[{4-[(8-cyclohexyl-2,8-diazaspiro[4.5]dec-2-yl)methyl]benzyl}(1H-imidazol-2-ylmethyl)amino]methyl}-1H-imidazol-1-yl)acetic Acid] | 10 | Negative (A test dose that indicated value of 25% or more of the maximum phospholipid accumulation increase rate of amiodarone which was the positive control was determined as positive) | Negative (The compound wherein a value of the binding response after the correction was 150 or more was determined as positive) | 59.0 |
| 11.8 | CCOC(=O)CCCn1ccnc1CN(Cc1ccc(CN2CCC3(CCN(C(CC)CC)CC3)C2)cc1)Cc1ncc[nH]1 [Example 37 (3), Ethyl 4-(2-{[(4-{[8-(1-ethylpropyl)-2,8-diazaspiro[4.5]dec-2-yl]methyl]benzyl)(1 H-imidazol-2-ylmethyl)amino]methyl}-1H-imidazol-1-yl)butanoate] | – | – | – | – |

— patent publication US8618122B2, “Compound having acidic group which may be protected, and use thereof” (Ono Pharmaceutical Co., Ltd., priority 2006, dated 2013)
